# Data as given in patent EP1285920A1, “C10 Ester sustituted taxanes as antitumor agents” (Florida State University Research Foundation, Inc., priority 2001, dated 2003).
# Like-named read-outs stand apart in the source and are kept apart here.
# Columns and labels:
# [1] = tested on: MX-1 human breast carcinoma; format: in vivo
# Procedure: (§1) Antitumor compounds were administered orally in a study to investigate whether such a formulation is efficacious against the MX-1 human breast carcinoma xenograft. Antitumor compound 0499 was formulated as Solution 1 in Example 6. Antitumor compound 0550 was formulated as Solution 2 in Example 6. Antitumor compound 0611 was formulated as Solution 3 in Example 6. Antitumor compound 0748 was formulated as Solution 4 in Example 6. Other antitumor compounds were formulated similarly. The compounds were prepared in a vehicle of 90% saline, 5% Cremophor, and 5% ethanol.
# (§2) Female nu/nu mice (11-12 weeks of age; implanted subcutaneously with 1 mm^3 MX-1 human breast carcinoma fragments in the flank) were sorted into one control group (n=10) and four treatment (n=6) groups (group mean tumor size of 47-49 mg). The study was terminated on Day 63.
# HCT116 = experiment: In Vitro cytotoxicity measured by the cell colony formation assay; format: cell-based, human; conditions: Homo sapiens, HCT-116; read-out: IN VITRO ID 50 HCT116
# Method in brief: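 Four hundred cells per dish in McCoy's 5a medium with 10% FBS were allowed to attach for 5 h at 37 °C. They were then exposed to compound for 72 h at 37 °C, added as a 10× stock made fresh in medium. After HBSS rinsing and refeeding, colonies were counted after 7 days.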
# blood cell populations = experiment: Effect of oral treatment on blood cell populations and body weight in the MX-1 study (Example 22); format: in vivo, nu/nu mice; set-up: neutrophil reduction: concentration or dose not given beside the values
# Procedure: as §1, §2
# In addition to survival and tumor regression responses, the effect of treatment on blood cell populations was assessed. The major effect of these antitumor compounds on blood cell populations was a marked reduction in the neutrophil cell number. As well, monocyte depletion correlated fairly well with neutrophil reduction for each antitumor compound. […] There was a correlation between antitumor activity and reduced neutrophil count. In general, toxicity (as determined by neutrophil depletion) and weight loss correlated with efficacy. […] Importantly, the toxicities observed with the very efficacious antitumor compounds were manageable and reversible; neutrophil count and body weight rebounded from their low points in just a few days. Table 20 summarizes the weight reduction, neutrophil and monocyte measurements on Day 4, with tumor weight reduction calculated at Day 18: Table 20
# HCT116 carcinoma = tested on: HCT116 carcinoma
# Method in brief: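 Mice bearing HCT116 tumours received a single i.v. maximum tolerated dose per compound, formulated in 5% ethanol, 5% Cremophor, 90% isotonic saline. Study ended on Day 60; complete response meant no palpable tumour at study end.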
# [2] = tested on: Panc-1 pancreatic carcinoma; conditions: for Mean Score: iv
# Procedure: (§3) The dosing volume was 0.3 ml per 20 g mouse.
# Female NCr-nude mice were implanted subcutaneously with 1 mm^3 Panc-1 pancreatic carcinoma fragments in the flank and sorted into treatment groups of six mice each. […] Dosing was initiated on Day 1. The antitumor compounds were given i.v. at an estimated maximum tolerated dose (MTD) appropriate for each agent on a qd x 1 schedule (single administration of compound). […] The vehicle was administered i.v. to control mice in Group 1 on the qd x 1 schedule.
# (§4) The mean days of survival is the number of days after which a neoplasm reached a size of 1.5 g and the animal was euthanized. A complete response is obtained if the tumor shrinks to a size smaller than its size on Day 1 of the study.
# A375 melanoma = conditions: for mean group weight losses: A375, i.v. qd x 1; for Toxic Deaths / Survivors: number of mice, i.v. qd x 1 at estimated MTD (Taxol 24 mg/kg, Taxotere 70 mg/kg), 6 mice/group (Taxotere 7); for Survivors: Day 60
# Procedure: Dosing was initiated on Day 1. […] Taxotere was given i.v. on a qd x 1 schedule at a dose of 70 mg/kg. […] The study was terminated on Day 60. Treatment groups are detailed in Table 9.
# MX-1 carcinoma = tested on: MX-1 carcinoma
# Method in brief: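 Mice dosed with a single i.v. bolus (qd x 1) at each compound's MTD, formulated in 5% ethanol, 5% Cremophor, 90% isotonic saline. Study ended Day 60; complete response = tumor not palpable at study end.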
# A2780 ovarian carcinoma = tested on: A2780 ovarian carcinoma
# Procedure: Dosing was initiated on Day 1. […] Taxotere was given i.v. on a qd x 1 schedule at a dose of 70 mg/kg. […] The study was terminated on Day 60. Treatment groups are detailed in Table 7.
# DU145 prostate carcinoma = conditions: for Toxic Deaths / Survivors: number of 5 mice, Day 91; for Toxic Deaths: i.v. qd x 1 at estimated MTD (Taxol 24 mg/kg as two split doses); for Survivors: i.v. qd x 1 at estimated MTD (Taxol 24 mg/kg split)
# Text: Dosing was initiated on Day 1. […] Treatment groups are detailed in Table 5.
# VM46 colon carcinoma = tested on: VM46 colon carcinoma
# Procedure: Dosing was initiated on Day 1. […] Taxotere was given i.v. at a dose of 70 mg/kg on a qd x 1 schedule.
# [3] = tested on: Panc-1 pancreatic carcinoma; experiment: In vivo evaluation against Panc-1 human pancreatic carcinoma (Example 17); conditions: i.v. qd x 1
# Procedure: as §3
# Female NCr-nude mice were implanted subcutaneously with 1 mm^3 Panc-1 pancreatic carcinoma fragments in the flank and sorted into treatment groups of six mice each. […] Dosing was initiated on Day 1. The antitumor compounds were given i.v. at an estimated maximum tolerated dose (MTD) appropriate for each agent on a qd x 1 schedule (single administration of compound). […] The vehicle was administered i.v. to control mice in Group 1 on the qd x 1 schedule. The study was terminated on Day 60.
# as §4
# [4] = number of mice, single oral bolus Day 1, mg/kg: 0499 80, 0550 73, 0611 113, 0748 200, 6 mice/group, Day 63
# [5] = Day 4, vs vehicle, single oral bolus, mg/kg: 0499 80, 0550 73, 0611 113, 0748 200
# [6] = Day 4, single oral bolus Day 1, mg/kg: 0499 80, 0550 73, 0611 113, 0748 200
# [7] = Panc-1 (Example 18), i.v. qd x 1, six mice per group
# [8] = number of mice, i.v. qd x 1, mg/kg: Taxol 24, 0854 46.6, 1011 107.6, 6 mice/group
# [9] = number of mice, i.v. qd x 1, mg/kg: Taxol 24, 0854 46.6, 1011 107.6, 6 mice/group, Day 63
# [10] = A2780, i.v. qd x 1, five mice per group
# [11] = number of mice, i.v. qd x 1, mg/kg: Taxol 24, 0499 77, 0503 72.6, 0670 123.1, 0706 107.6, 0838 72.6, 0854 46.6, 0983 67.4, Taxotere 70, 6 mice/group, Day 64
# [12] = number of mice, mg/kg: Taxol 36, 0499 77, 0503 72.6, 0670 123.1, 0706 107.6, 0838 72.6, 0854 76.9, 6 mice/group, Day 60
smiles,measurement,setting,value
CCC(=O)O[C@H]1C(=O)[C@@]2(C)[C@H]([C@H](OC(=O)c3ccccc3)[C@]3(O)C[C@H](OC(=O)[C@H](O)[C@@H](NC(=O)OC(C)(C)C)c4cccs4)C(C)=C1C3(C)C)[C@]1(OC(C)=O)CO[C@@H]1C[C@@H]2O [Compound 0550],complete tumor regressions,"[1]; MX-1, single oral bolus Day 1, six mice per group (0611: five evaluable), ended Day 63",six
same,Toxic Deaths,"[1]; number of mice, single oral bolus Day 1, mg/kg: 0499 80, 0550 73, 0611 113, 0748 200, 6 mice/group",0
same,Complete Response,[1]; [4],6
same,Partial Response,[1]; [4],0
same,Stable Disease,[1]; [4],0
same,% Reduction (Weight),"[1]; po, 432 h",100.0%
same,IC50,HCT116,< 10 nM
same,% Reduction (Monocytes),blood cell populations; [5],80.2%
same,% Reduction (Neutrophils),blood cell populations; [5],95.9%
same,Monocytes (K/µL),blood cell populations; [6],0.019 K/µL
same,Neutrophils (K/µL),blood cell populations; [6],0.037 K/µL
same,neutrophil reduction,"blood cell populations; MX-1 study, single oral bolus, day 4",95.9%
same,body weight loss,"blood cell populations; MX-1 study, single oral bolus, day 5",16.1%
same,Maximum Weight Loss (Day),"blood cell populations; body weight, day of maximum in parentheses in the cell, single oral bolus Day 1, mg/kg: 0499 80, 0550 73, 0611 113, 0748 200",-16.1% (5)
CCCC(=O)O[C@H]1C(=O)[C@@]2(C)[C@H]([C@H](OC(=O)c3ccccc3)[C@]3(O)C[C@H](OC(=O)[C@H](O)[C@@H](NC(=O)OC(C)(C)C)c4ccsc4)C(C)=C1C3(C)C)[C@]1(OC(C)=O)CO[C@@H]1C[C@@H]2O [Compound 1011],Partial Response,HCT116 carcinoma; iv,2
same,Complete Response,"HCT116 carcinoma; iv, 1440 h",3
same,Mean Score,"HCT116 carcinoma; iv, 1440 h",9.6 ± 0.2
same,Stable Disease,"HCT116 carcinoma; iv, 1440 h",0
same,Survivors,"HCT116 carcinoma; number of 5 mice, i.v. qd x 1 at MTD, Day 60, doses as in E3",5
same,Toxic Deaths,"HCT116 carcinoma; number of 5 mice, i.v. qd x 1 at MTD, Day 60, mg/kg: Taxol 36 (split doses), 0503 72.6, 0536 49, 0663 159, 0670 123, 0687 159, 0706 108, 0908 159, 0947 76.9, 0951 72.6, 0983 72.6, 0999 49, 1003 49, 1011 108",0
same,partial responses,[2]; [7],three
same,toxic deaths / toxic lethalities,[2]; [7],three
same,overall response rate,"[2]; Panc-1 (Example 18), i.v. qd x 1 at estimated MTD",100%
same,Mean Score,[2],4 ± 1.8
same,Toxic Deaths,[2]; [8],3
same,Complete Response,[2]; [9],0
same,Partial Response,[2]; [9],3
same,Stable Disease,[2]; [9],0
same,Survivors,[2]; [9],3
same,mean group weight losses,A375 melanoma,20 - 30%
same,Toxic Deaths,A375 melanoma,3
same,Survivors,A375 melanoma,0
same,Partial Response,MX-1 carcinoma; iv,0
same,Complete Response,"MX-1 carcinoma; iv, 1440 h",6
same,Mean Score,"MX-1 carcinoma; iv, 1440 h",10 ± 0
same,Stable Disease,"MX-1 carcinoma; iv, 1440 h",0
same,Survivors,"MX-1 carcinoma; number of 6 mice, i.v. qd x 1 at MTD, Day 60, doses as in E17",6
same,Toxic Deaths,"MX-1 carcinoma; number of 6 mice, i.v. qd x 1 at MTD, Day 60, mg/kg: Taxol 36 (split dose), 0503 72.6, 0536 49, 0663 159, 0670 123, 0687 159, 0706 108, 0908 159, 0947 76.9, 0951 72.6, 0983 67.4, 0999 49, 1003 49, 1011 108",0
same,maximal mean group weight loss,"A2780 ovarian carcinoma; A2780, i.v. qd x 1, Day 5",11.3%
same,Complete Response,A2780 ovarian carcinoma; [10],1
same,Toxic Deaths,A2780 ovarian carcinoma; [10],no toxic deaths
same,partial responses,A2780 ovarian carcinoma; [10],3
same,tolerability / toxicity,"A2780 ovarian carcinoma; mouse, in vivo, iv",well-tolerated
same,mortality rate,"DU145 prostate carcinoma; DU145, i.v. qd x 1 at the administered dose, five animals",≥ 40%
same,Toxic Deaths,DU145 prostate carcinoma,3
same,Survivors,DU145 prostate carcinoma,0
same,IC50,HCT116,< 1 nM
CC(=O)O[C@@]12CO[C@@H]1C[C@H](O)[C@@]1(C)C(=O)[C@H](OC(=O)C3CC3)C3=C(C)[C@@H](OC(=O)[C@H](O)[C@@H](NC(=O)OC(C)(C)C)c4cccs4)C[C@@](O)([C@@H](OC(=O)c4ccccc4)[C@H]21)C3(C)C [Compound 0854],Mean Score,[2],0 ± 0
same,Toxic Deaths,[2]; [8],6
same,Complete Response,[2]; [9],0
same,Partial Response,[2]; [9],0
same,Stable Disease,[2]; [9],0
same,mean group weight losses,A375 melanoma,20 - 30%
same,Toxic Deaths,A375 melanoma,6
same,Survivors,A375 melanoma,0
same,response rate,"VM46 colon carcinoma; VM46, i.v. qd x 1 at estimated MTD",16.7-40%
same,Mean Score,VM46 colon carcinoma; iv,4.7 ± 1.6
same,MDS (n),"VM46 colon carcinoma; iv, 1536 h",52.9 ± 6.6 (2) days
same,maximal mean weight loss,"VM46 colon carcinoma; mouse, in vivo, iv",under 12%
same,Toxic Deaths,"VM46 colon carcinoma; number of mice, i.v. qd x 1, mg/kg: Taxol 24, 0499 77, 0503 72.6, 0670 123.1, 0706 107.6, 0838 72.6, 0854 46.6, 0983 67.4, Taxotere 70, 6 mice/group",1
same,Complete Response,VM46 colon carcinoma; [11],0
same,Partial Response,VM46 colon carcinoma; [11],2
same,Stable Disease,VM46 colon carcinoma; [11],1
same,Survivors,VM46 colon carcinoma; [11],3
same,Toxic Deaths,"[3]; Panc-1 (Example 17), six mice per group",six
same,Toxic Deaths,"[3]; number of mice, mg/kg: Taxol 36, 0499 77, 0503 72.6, 0670 123.1, 0706 107.6, 0838 72.6, 0854 76.9, 6 mice/group",6
same,Complete Response,[3]; [12],0
same,Partial Response,[3]; [12],2
same,Stable Disease,[3]; [12],0
same,Mean Score,"[3]; tumor scoring system, mg/kg: Taxol 36, 0499 77, 0503 72.6, 0670 123.1, 0706 107.6, 0838 72.6, 0854 76.9, 6 mice/group",0 ± 0
same,Toxic Deaths,DU145 prostate carcinoma,5
same,Survivors,DU145 prostate carcinoma,0
same,IC50,HCT116,< 1 nM
